The text below walks through data of US9085598B2, “Compounds targeting the cell invasion protein complex, their pharmaceutical compositions and methods of use thereof” (THE ROYAL INSTITUTE FOR THE ADVANCEMENT OF LEARNING/MCGILL …, priority 2011, dated 2015).

In one assay the test system is MDA-231 cells. The experiment in a line: Inhibition of cell proliferation, MTT metabolic assay. The format is cell-based. To be noted: 96 hours continuous treatment, read-out: MDA231- IC50. As to the method: Exponentially growing DU145 or MDA-231 cells (1×10^3 cells) were seeded in 96-well plates. The final concentration of DMSO was less than 0.05%. After 96 hours, the cell survival was evaluated using 3-(4,5-dimethylthiazo-2-yl)-2,5-diphenyltetrazolium bromide (MTT) metabolic assay.
For orientation: Tetrazolium dyes change colour on reduction, which living cells bring about.

Another assay addresses T1, FAK (Homo sapiens, UniProt Q05397).
T1 construct: Human recombinant full-length kinases were incubated in kinase buffer
Nature of the assay: In vitro kinase activity (Kinase-Glo luminescence). The conditions noted are these: read-out: FAK inhibition (% at 1 μM). The format is biochemical. As to the method: Human recombinant full-length kinases were incubated in kinase buffer containing ATP and substrate (Poly Glu:Tyr) for 4 hours at room temperature with or without the presence of the compounds listed in Table 1 at various concentrations. Remaining ATP in solution was then quantified using the Kinase-Glo-Iuminescence™ kit (Promega).
Background: In Kinase-Glo more light means more ATP remaining.

The next assay deals with DU145 cells. The experiment in a line: Inhibition of cell proliferation, MTT metabolic assay. The format is cell-based. As to the method: Exponentially growing DU145 or MDA-231 cells (1×10^3 cells) were seeded in 96-well plates. The final concentration of DMSO was less than 0.05%. After 96 hours, the cell survival was evaluated using 3-(4,5-dimethylthiazo-2-yl)-2,5-diphenyltetrazolium bromide (MTT) metabolic assay. The inhibitory activity (IC50) of the compounds on MDA-231 and DU145 cell proliferation was determined. The results are presented in Table 1 for a representative number of compounds.

[1] abbreviates: Homo sapiens, MDA-MB-231, MDA-231 cell proliferation.
The mark [2] stands for this setting: Homo sapiens, DU-145, 96 hours continuous treatment.

Like-named read-outs stand apart in the source and are kept apart here.

T1 sequence (Q05397 whole entry): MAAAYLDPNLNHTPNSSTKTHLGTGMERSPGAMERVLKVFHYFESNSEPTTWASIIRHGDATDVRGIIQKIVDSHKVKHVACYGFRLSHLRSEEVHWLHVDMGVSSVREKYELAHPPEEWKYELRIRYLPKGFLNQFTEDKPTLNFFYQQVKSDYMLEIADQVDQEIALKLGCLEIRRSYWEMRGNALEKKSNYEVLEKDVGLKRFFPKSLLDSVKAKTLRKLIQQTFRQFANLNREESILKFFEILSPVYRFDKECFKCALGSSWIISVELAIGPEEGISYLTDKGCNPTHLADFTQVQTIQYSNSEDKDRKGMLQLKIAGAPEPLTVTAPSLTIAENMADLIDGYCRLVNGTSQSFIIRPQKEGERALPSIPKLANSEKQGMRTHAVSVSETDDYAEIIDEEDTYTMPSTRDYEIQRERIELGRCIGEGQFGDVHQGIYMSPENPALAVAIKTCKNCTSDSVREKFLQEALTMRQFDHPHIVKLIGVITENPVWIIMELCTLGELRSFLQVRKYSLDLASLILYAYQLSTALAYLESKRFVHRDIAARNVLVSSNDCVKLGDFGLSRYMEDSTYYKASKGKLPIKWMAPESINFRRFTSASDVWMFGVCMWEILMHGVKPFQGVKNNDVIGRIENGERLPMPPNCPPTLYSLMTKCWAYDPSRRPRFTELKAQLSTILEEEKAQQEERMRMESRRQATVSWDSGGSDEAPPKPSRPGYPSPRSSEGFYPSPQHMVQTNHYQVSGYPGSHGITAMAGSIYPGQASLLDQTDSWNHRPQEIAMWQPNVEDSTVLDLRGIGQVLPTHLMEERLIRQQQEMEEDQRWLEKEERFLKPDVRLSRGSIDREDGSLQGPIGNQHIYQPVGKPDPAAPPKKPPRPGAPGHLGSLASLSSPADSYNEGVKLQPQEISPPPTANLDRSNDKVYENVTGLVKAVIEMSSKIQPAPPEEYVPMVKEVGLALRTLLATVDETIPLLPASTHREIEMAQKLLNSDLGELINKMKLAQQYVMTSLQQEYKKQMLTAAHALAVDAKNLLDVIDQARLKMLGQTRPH

In general, IC50 refers to the midpoint of a concentration-inhibition curve. As a reminder, the inhibition is the relative decrease from the control value, in per cent. As to `O=c1c2ccccc2[se]n1-c1ccc(O[C@@H]2OC(CO)[C@@H](O)C(O)C2O)cc1` (stereo partly drawn) [Compound 26], the IC50 in the assay with MDA-231 cells (setting [1]) came out at 4.4 µM. The inhibition at 1 µM on FAK was found to be 15%. On to `CC(=O)OCC1O[C@@H](OC(=O)c2ccc(-n3[se]c4ccccc4c3=O)cc2)C(OC(C)=O)C(OC(C)=O)[C@H]1OC(C)=O` (stereo partly drawn) [Compound 29], for which the IC50 in the assay on MDA-231 cells (setting [1]) was 3.7 µM. Also, the inhibition at 1 µM at FAK was 11%.

Consider `CC(=O)OCC1O[C@@H](Oc2ccc(-n3[se]c4ccccc4c3=O)cc2)C(OC(C)=O)C(OC(C)=O)[C@@H]1OC(C)=O` (stereo partly drawn) [Compound 25], for which the IC50 in the assay on MDA-231 cells (setting [1]) worked out at 11.4 µM. Also, the inhibition at 1 µM on FAK is 65%.

As to `O=C(N[C@@H]1OC(CO)[C@H](O)C(O)C1O)c1ccc(-n2[se]c3ccccc3c2=O)cc1` (stereo partly drawn) [Compound 23], the IC50 in the assay on MDA-231 cells (setting [1]) stood at 12.7 µM. Also, at FAK, the inhibition at 1 µM is 32%.

On to `O=c1c2ccccc2[se]n1[C@@H]1O[C@H](CO)[C@@H](O[C@@H]2O[C@H](CO)[C@H](O)[C@H](O)[C@H]2O)[C@H](O)[C@H]1O` [Compound 5, 2-(1-deoxy-β-D-lactosyl)-1,2-benzisoselenazol-3(2H)-one], for which the IC50 with DU145 cells (96 hours continuous treatment) came out at 24.6 µM; with MDA-231 cells (MDA-231 cell proliferation), 18.1 µM. In the case of `O=C(N[C@@H]1OC(CO)[C@@H](O)C(O)C1O)c1ccc(-n2[se]c3ccccc3c2=O)cc1` (stereo partly drawn) [Compound 22], the IC50 in the assay on MDA-231 cells (setting [1]) was determined as 2.7 µM. In addition, the inhibition at 1 µM at FAK is 60%. For the molecule `CC(=O)OCC1O[C@@H](OC(=O)c2ccc(-n3[se]c4ccccc4c3=O)cc2)C(OC(C)=O)C(OC(C)=O)[C@@H]1O[C@@H]1OC(COC(C)=O)[C@H](OC(C)=O)C(OC(C)=O)C1OC(C)=O` (stereo partly drawn) [Compound 30], in the assay on MDA-231 cells (setting [1]), the IC50 came to 2.2 µM. The inhibition at 1 µM at FAK was 94%. In the case of `CC(=O)OCC1O[C@@H](NC(=O)c2ccc(-n3[se]c4ccccc4c3=O)cc2)C(OC(C)=O)C(OC(C)=O)[C@H]1OC(C)=O` (stereo partly drawn) [Compound 24], the IC50 in the assay with MDA-231 cells (setting [1]) came to 15.3 µM. Further, the inhibition at 1 µM on FAK was determined as 72%.

`CC(=O)OC[C@H]1O[C@@H](NC(=O)Cn2[se]c3ccccc3c2=O)[C@H](OC(C)=O)[C@@H](OC(C)=O)[C@@H]1OC(C)=O` [Compound 6, 2-(3-oxo-1,2-benzisoselenazol-2(3H)-yl)-N-(1-deoxy-2,3,4,6-tetra-O-acetyl-β-D-glucopyranosyl)-acetamide]: the figures for the IC50 in the assay on DU145 cells (96 hours continuous treatment) and in the assay with MDA-231 cells (MDA-231 cell proliferation) were 145 µM and 275 µM, respectively. For the molecule `CC(=O)OCC1O[C@@H](n2[se]c3ccccc3c2=O)C(OC(C)=O)C(OC(C)=O)[C@@H]1OC(C)=O` (stereo partly drawn) [Compound 19], the IC50 is 11.9 µM in the assay with DU145 cells (setting [2]) and 5.2 µM with MDA-231 cells (setting [1]). The molecule `O=C(CCCn1[se]c2ccccc2c1=O)N[C@@H]1OC(CO)[C@@H](O[C@@H]2OC(CO)[C@H](O)C(O)C2O)C(O)C1O` (stereo partly drawn) [Compound 16] yielded an IC50 in the assay on DU145 cells (setting [2]) of 39.7 µM.

For `CC(=O)OCC1O[C@@H](NC(=O)c2ccc(-n3[se]c4ccccc4c3=O)cc2)C(OC(C)=O)C(OC(C)=O)[C@@H]1OC(C)=O` (stereo partly drawn) [Compound 21], the IC50 with MDA-231 cells (setting [1]) worked out at 5.5 µM. For the same molecule, the inhibition at 1 µM on FAK amounted to 54%. As to `CC(=O)OCC1O[C@@H](OC(=O)c2ccc(-n3[se]c4ccccc4c3=O)cc2)C(OC(C)=O)C(OC(C)=O)[C@@H]1OC(C)=O` (stereo partly drawn) [Compound 28], in the assay with MDA-231 cells (setting [1]), the IC50 was determined as 4.3 µM. Moreover, the inhibition at 1 µM on FAK was 85%.

As to `O=C(OCC1O[C@@H](OC(=O)c2ccc(-n3[se]c4ccccc4c3=O)cc2)C(OC(=O)c2ccccc2)C(OC(=O)c2ccccc2)[C@@H]1OC(=O)c1ccccc1)c1ccccc1` (stereo partly drawn) [Compound 31], the IC50 in the assay on MDA-231 cells (setting [1]) came out at 22.9 µM. Besides, the inhibition at 1 µM at FAK stood at 8%. Taken in the same sequence, the figures for `CC(=O)OCC1O[C@@H](NC(=O)c2ccc(-n3[se]c4ccccc4c3=O)cc2)C(OC(C)=O)C(OC(C)=O)[C@@H]1O[C@@H]1OC(COC(C)=O)[C@H](OC(C)=O)C(OC(C)=O)C1OC(C)=O` (stereo partly drawn) [Compound 27] were 6.8 µM and 12%. Regarding `CC(=O)OCC1O[C@@H](NC(=O)CCCn2[se]c3ccccc3c2=O)C(OC(C)=O)C(OC(C)=O)[C@@H]1O[C@@H]1OC(COC(C)=O)[C@H](OC(C)=O)C(OC(C)=O)C1OC(C)=O` (stereo partly drawn) [Compound 15], in the assay with DU145 cells (setting [2]), inhibition was half-maximal at 34.5 µM (IC50).
